In US20220348558A1, “INHIBITORS OF ENCEPHALITIC ALPHAVIRUSES” (priority 2019, published 2022) one finds EC50 data, which are given here for 28 molecules.

The subject of one assay is WEEV California. Nature of the assay: microbe, parasite or virus in culture. The assay is classed as cell-based. Conditions: Western equine encephalitis virus, Vero 76, 48 h, read-out: WEEV California EC50 nM.
For a further assay, the system named is VEEV TC83. Nature of the assay: microbe, parasite or virus in culture. The assay is classed as cell-based. Particulars: Venezuelan equine encephalitis virus, Vero 76, 48 h, read-out: VEEV TC83 EC50 nM.

One may read the EC50 as the concentration that produces a half-maximal response. Take `COc1ccc(-n2c([C@@H]3CCCN3)nc3c(C(F)(F)F)cc(C#N)cc3c2=O)cc1F` [Example 77, (S)-3-(3-fluoro-4-methoxyphenyl)-4-oxo-2-(pyrrolidin-2-yl)-8-(trifluoromethyl)-3,4-dihydroquinazoline-6-carbonitrile]: the results for the EC50 in the assay on WEEV California and with VEEV TC83 were 1 to 50 nM and 51 to 150 nM, respectively.

As for `COc1ccc(-n2c([C@@H]3CCCN3C3CCOCC3)nc3ccc(F)c(F)c3c2=O)cc1` [Example 31, (S)-5,6-difluoro-3-(4-methoxyphenyl)-2-(1-(tetrahydro-2H-pyran-4-yl)pyrrolidin-2-yl) quinazolin-4 (3H)-one], the EC50 in the assay on WEEV California and with VEEV TC83 was over 1000 nM in each case.

`COc1ccc(-n2c([C@H]3CCCN3)nc3c(-c4cncc(C#N)c4)cc([N+](=O)[O-])cc3c2=O)cc1F` [Example 94, (R)-3-(3-fluoro-4-methoxyphenyl)-8-(5-cyanopyridin-3-yl)-6-nitro-2-(pyrrolidin-2-yl) quinazolin-4 (3H)-one]: the concentration for a half-maximal effect (EC50) with WEEV California lay in the range of 51 to 150 nM; in the assay on VEEV TC83, 1 to 50 nM.

`COc1ccc(-n2c([C@H]3CCNC3)nc3c(C)cc([N+](=O)[O-])cc3c2=O)cc1F` [Example 65, (S)-3-(3-fluoro-4-methoxyphenyl)-8-methyl-6-nitro-2-(pyrrolidin-3-yl) quinazolin-4 (3H)-one]: the 50% effective concentration (EC50) in the assay with WEEV California and in the assay with VEEV TC83 was 51 to 150 nM in each case.

Turning to `COc1c(F)cc(-n2c(C3CCCN3)nc3c(-c4ccc(CO)nc4)cc(C#N)cc3c2=O)cc1F` (centres unmarked) [Example 180, 3-(3,5-difluoro-4-methoxyphenyl)-8-(6-(hydroxymethyl)pyridin-3-yl)-4-oxo-2-(pyrrolidin-2-yl)-3,4-dihydroquinazoline-6-carbonitrile], the EC50 with WEEV California and with VEEV TC83 was 1 to 50 nM throughout.

On to `COc1ccc(-n2c([C@H]3CCCN3)nc3ccc(F)c(F)c3c2=O)cc1` [Example 28, (R)-5,6-difluoro-3-(4-methoxyphenyl)-2-(pyrrolidin-2-yl) quinazolin-4 (3H)-one], for which the half-maximal effective concentration (EC50) in the assay on WEEV California is over 1000 nM; with VEEV TC83 it was 151 to 500 nM.

Consider `COc1ccc(-n2c([C@@H]3CCCN3)nc3ccc(C#N)cc3c2=O)cc1` [Example 15, (S)-3-(4-methoxyphenyl)-4-oxo-2-(pyrrolidin-2-yl)-3,4-dihydroquinazoline-6-carbonitrile], for which the EC50 in the assay on WEEV California fell in the range of 501 to 1000 nM; in the assay on VEEV TC83, 51 to 150 nM.

As to `Cc1ccccc1-n1c([C@H]2CCCN2)nc2ccc([N+](=O)[O-])cc2c1=O` [Example 35, (R)-6-nitro-2-(pyrrolidin-2-yl)-3-(o-tolyl)quinazolin-4 (3H)-one], the EC50 in the assay on WEEV California and with VEEV TC83 was over 1000 nM each time.

Take `COc1ccc(-n2c([C@H]3C[C@H](F)CN3)nc3c(C)cc(C#N)cc3c2=O)cc1F` [Example 54, 3-(3-fluoro-4-methoxyphenyl)-2-((2R,4S)-4-fluoropyrrolidin-2-yl)-8-methyl-4-oxo-3,4-dihydroquinazoline-6-carbonitrile]: the concentration giving a half-maximal response (EC50) with WEEV California and with VEEV TC83 was 151 to 500 nM each time.

Take `COc1ccc(-n2c(C3CCCN3)nc3c(-c4ccc(C#N)nc4)cc(C#N)cc3c2=O)cc1F` (centres unmarked) [Example 126, 8-(6-cyanopyridin-3-yl)-3-(3-fluoro-4-methoxyphenyl)-4-oxo-2-(pyrrolidin-2-yl)-3,4-dihydroquinazoline-6-carbonitrile]: the EC50 was in the range of 51 to 150 nM with WEEV California and 1 to 50 nM in the assay on VEEV TC83.

Regarding `COc1ccc(-n2c([C@H]3CCCCN3)nc3ccc([N+](=O)[O-])cc3c2=O)cc1` [Example 33, (R)-3-(4-methoxyphenyl)-6-nitro-2-(piperidin-2-yl)quinazolin-4 (3H)-one], the EC50 in the assay with WEEV California and with VEEV TC83 was 151 to 500 nM throughout.

As for `Cc1cc(-c2cc(C#N)cc3c(=O)n(-c4cc(F)c(N5CC6(COC6)C5)c(F)c4)c(C4CCCN4)nc23)cc(C)n1` (centres unmarked) [Example 163, 3-(3,5-difluoro-4-(2-oxa-6-azaspiro[3.3]heptan-6-yl)phenyl)-8-(2,6-dimethylpyridin-4-yl)-4-oxo-2-(pyrrolidin-2-yl)-3,4-dihydroquinazoline-6-carbonitrile], the EC50 with WEEV California and in the assay with VEEV TC83 was over 1000 nM throughout.

On to `COc1ccc(-n2c(C3CCCN3C3CCOCC3)nc3ccc(F)c(F)c3c2=O)cc1` (stereo in doubt) [Example 29, (S)-5,6-difluoro-3-(4-methoxyphenyl)-2-(1-(tetrahydro-2H-pyran-4-yl)pyrrolidin-2-yl) quinazolin-4 (3H)-one], for which the EC50 in the assay with WEEV California and in the assay with VEEV TC83 was over 1000 nM each time.

Turning to `COc1ccc(-n2c([C@@H]3C[C@@H](F)CN3)nc3c(C)cc([N+](=O)[O-])cc3c2=O)cc1` [Example 63, 2-((2S,4R)-4-fluoropyrrolidin-2-yl)-3-(4-methoxyphenyl)-8-methyl-6-nitroquinazolin-4 (3H)-one], the EC50 in the assay on WEEV California and in the assay with VEEV TC83 was over 1000 nM each time.

As for `COc1ccc(-n2c(C3CCCN3)nc3c(N4CCC(N5CCOCC5)CC4)cc(C#N)cc3c2=O)cc1F` (centres unmarked) [Example 114, 3-(3-fluoro-4-methoxyphenyl)-8-(4-morpholinopiperidine-1-yl)-4-oxo-2-(pyrrolidin-2-yl)-3,4-dihydroquinazoline-6-carbonitrile], the EC50 in the assay on WEEV California lay within 51 to 150 nM; in the assay on VEEV TC83, 1 to 50 nM.

Regarding `COc1ccc(-n2c([C@H]3CCCN3)nc3c(F)c(F)c(F)cc3c2=O)cc1` [Example 16, (R)-6,7,8-trifluoro-3-(4-methoxyphenyl)-2-(pyrrolidin-2-yl)quinazolin-4 (3H)-one], the EC50 in the assay with WEEV California was over 1000 nM; in the assay on VEEV TC83, 501 to 1000 nM.

For the molecule `N#Cc1ccc(-n2c([C@H]3CCCN3)nc3ccc([N+](=O)[O-])cc3c2=O)cc1` [Example 20, (R)-4-(6-nitro-4-oxo-2-(pyrrolidin-2-yl)quinazolin-3 (4H)-yl)benzonitrile], the EC50 with WEEV California was 51 to 150 nM; with VEEV TC83, 1 to 50 nM.

In the case of `Cc1ccc(-c2cc(C#N)cc3c(=O)n(-c4ccc(N5CCOCC5)c(F)c4)c(C4CCCN4)nc23)cn1` (centres unmarked) [Example 146, 3-(3-Fluoro-4-morpholinophenyl)-8-(6-methylpyridin-3-yl)-4-oxo-2-(pyrrolidin-2-yl)-3,4-dihydroquinazoline-6-carbonitrile], the EC50 fell in the range of 501 to 1000 nM in the assay on WEEV California and 151 to 500 nM in the assay on VEEV TC83.

Take `Cc1ccc(-c2cc(C#N)cc3c(=O)n(-c4ccc(O)c(F)c4)c([C@H]4CCCN4)nc23)cn1` [Example 167, (R)-3-(3-fluoro-4-hydroxyphenyl)-8-(6-methylpyridin-3-yl)-4-oxo-2-(pyrrolidin-2-yl)-3,4-dihydroquinazoline-6-carbonitrile]: the figures for the EC50 in the assay with WEEV California and in the assay with VEEV TC83 were 151 to 500 nM and 51 to 150 nM, respectively.

In the case of `COc1ccc(-n2c([C@@H]3CCCN3C)nc3ccc([N+](=O)[O-])cc3c2=O)cc1` [Example 13, (S)-3-(4-methoxyphenyl)-2-(1-methylpyrrolidin-2-yl)-6-nitroquinazolin-4 (3H)-one], the EC50 in the assay on WEEV California fell in the range of 51 to 150 nM; with VEEV TC83, 1 to 50 nM.

Take `COc1ccc(-n2c([C@H]3CCCN3)nc3c(-c4ccnc(F)c4)cc([N+](=O)[O-])cc3c2=O)cc1F` [Example 90, (R)-3-(3-fluoro-4-methoxyphenyl)-8-(2-fluoropyridin-4-yl)-6-nitro-2-(pyrrolidin-2-yl) quinazolin-4 (3H)-one]: the EC50 in the assay on WEEV California and with VEEV TC83 was 1 to 50 nM each time.

For `COc1ccc(-n2c(-c3nccn3C)nc3c(-c4ccc(C)nc4)cc(C#N)cc3c2=O)cc1F` [Example 203, 3-(3-fluoro-4-methoxyphenyl)-2-(1-methyl-1H-imidazol-2-yl)-8-(6-methylpyridin-3-yl)-4-oxo-3,4-dihydroquinazoline-6-carbonitrile], the EC50 in the assay with WEEV California lay in the range of 151 to 500 nM; with VEEV TC83, 51 to 150 nM.

For the molecule `COc1c(F)cc(-n2c(C34CC(CN3)C4)nc3c(-c4ccc(C)nc4)cc(C#N)cc3c2=O)cc1F` [Example 175, 2-(2-azabicyclo[2.1.1]hexan-1-yl)-3-(3,5-difluoro-4-methoxyphenyl)-8-(6-methylpyridin-3-yl)-4-oxo-3,4-dihydroquinazoline-6-carbonitrile], the EC50 in the assay with WEEV California was in the range of 51 to 150 nM; in the assay with VEEV TC83 it was 1 to 50 nM.

For `COc1ccc(-n2c([C@@H]3CCCN3)nc3c(Br)cc(C#N)cc3c2=O)cc1F` [Example 97, (S)-8-bromo-3-(3-fluoro-4-methoxyphenyl)-4-oxo-2-(pyrrolidin-2-yl)-3,4-dihydroquinazoline-6-carbonitrile], the EC50 in the assay on WEEV California and with VEEV TC83 was 1 to 50 nM each time.

Consider `COc1ccc(-n2c([C@H]3CCCN3)nc3c(-c4cncc(F)c4)cc(C#N)cc3c2=O)cc1F` [Example 106, (R)-3-(3-fluoro-4-methoxyphenyl)-8-(5-fluoropyridin-3-yl)-4-oxo-2-(pyrrolidin-2-yl)-3,4-dihydroquinazoline-6-carbonitrile], for which the EC50 with WEEV California and in the assay on VEEV TC83 was 1 to 50 nM throughout.

Consider `COc1ccc(-n2c([C@@H]3CC(=O)CN3)nc3c(-c4ccc(C)nc4)cc(C#N)cc3c2=O)cc1F` [Example 185, (S)-3-(3-fluoro-4-methoxyphenyl)-8-(6-methylpyridin-3-yl)-4-oxo-2-(4-oxopyrrolidin-2-yl)-3,4-dihydroquinazoline-6-carbonitrile], for which the EC50 in the assay on WEEV California is over 1000 nM; with VEEV TC83, 151 to 500 nM.

In the case of `COc1ccc(-c2cc(C#N)cc3c(=O)n(-c4ccc(OC)c(F)c4)c(C4CCCN4)nc23)cn1` (centres unmarked) [Example 125, 3-(3-fluoro-4-methoxyphenyl)-8-(6-methoxypyridin-3-yl)-4-oxo-2-(pyrrolidin-2-yl)-3,4-dihydroquinazoline-6-carbonitrile], the EC50 in the assay with WEEV California and in the assay on VEEV TC83 was 1 to 50 nM each time.

As for `COc1ccc(-n2c(C3CCCN3)nc3c(-c4ccc(N5CCN(C)CC5)nc4)cc(C#N)cc3c2=O)cc1F` (centres unmarked) [Example 132, 3-(3-fluoro-4-methoxyphenyl)-8-(6-(4-methylpiperazin-1-yl)pyridin-3-yl)-4-oxo-2-(pyrrolidin-2-yl)-3,4-dihydroquinazoline-6-carbonitrile], the EC50 in the assay on WEEV California and in the assay with VEEV TC83 was 1 to 50 nM each time.
